US9580423B2, “Bicyclic heterocycles as FGFR4 inhibitors” (Incyte Corporation, priority 2015, dated 2017)
pIC50: −log10 of the molar value. Where two headings read alike, the source gives them in different places.

How the values were obtained:
[1] = molecular target: FGFR4 (Homo sapiens (Human), UniProt P22455); test: FGFR Enzymatic Assay (FRET peptide phosphorylation), FGFR4; details: for FGFR1/FGFR4 IC50 ratio / FGFR2/FGFR4 IC50 ratio / FGFR3/FGFR4 IC50 ratio: IC50 ratio showing FGFR4 selectivity
Description: (§1) The enzymes were purchased from Millipore or Invitrogen.
(§2) GraphPad prism3 was used to analyze the data. The IC50 values were derived by fitting the data to the equation for a sigmoidal dose-response with a variable slope. Y=Bottom+(Top-Bottom)/(1+10^((LogIC50−X)*HillSlope)) where X is the logarithm of concentration and Y is the response.

[2] = molecular target: FGFR3 (Homo sapiens (Human), UniProt P22607); test: FGFR Enzymatic Assay (FRET peptide phosphorylation), FGFR3; details: for IC50: FGFR3 IC50 (nM); for pIC50: read-out: FGFR3 IC50
Description: as §1, §2

[3] = molecular target: FGFR2 (Homo sapiens (Human), UniProt P21802); test: FGFR Enzymatic Assay (FRET peptide phosphorylation), FGFR2
Description: as §1, §2

[4] = molecular target: FGFR1 (Homo sapiens (Human), UniProt P11362); test: FGFR Enzymatic Assay (FRET peptide phosphorylation), FGFR1; details: read-out: FGFR1 IC50
Description: as §1, §2

[5] = read-out: FGFR4 IC50, pre-incubated for 5 to 10 minutes
[6] = read-out: FGFR4 IC50, pre-incubated for 4 hours
[7] = pre-incubated for 5 to 10 minutes
[8] = read-out: FGFR2 IC50, pre-incubated for 5 to 10 minutes
[9] = read-out: FGFR2 IC50, pre-incubated for 4 hours

Sequence of FGFR4 (P22455 22-802): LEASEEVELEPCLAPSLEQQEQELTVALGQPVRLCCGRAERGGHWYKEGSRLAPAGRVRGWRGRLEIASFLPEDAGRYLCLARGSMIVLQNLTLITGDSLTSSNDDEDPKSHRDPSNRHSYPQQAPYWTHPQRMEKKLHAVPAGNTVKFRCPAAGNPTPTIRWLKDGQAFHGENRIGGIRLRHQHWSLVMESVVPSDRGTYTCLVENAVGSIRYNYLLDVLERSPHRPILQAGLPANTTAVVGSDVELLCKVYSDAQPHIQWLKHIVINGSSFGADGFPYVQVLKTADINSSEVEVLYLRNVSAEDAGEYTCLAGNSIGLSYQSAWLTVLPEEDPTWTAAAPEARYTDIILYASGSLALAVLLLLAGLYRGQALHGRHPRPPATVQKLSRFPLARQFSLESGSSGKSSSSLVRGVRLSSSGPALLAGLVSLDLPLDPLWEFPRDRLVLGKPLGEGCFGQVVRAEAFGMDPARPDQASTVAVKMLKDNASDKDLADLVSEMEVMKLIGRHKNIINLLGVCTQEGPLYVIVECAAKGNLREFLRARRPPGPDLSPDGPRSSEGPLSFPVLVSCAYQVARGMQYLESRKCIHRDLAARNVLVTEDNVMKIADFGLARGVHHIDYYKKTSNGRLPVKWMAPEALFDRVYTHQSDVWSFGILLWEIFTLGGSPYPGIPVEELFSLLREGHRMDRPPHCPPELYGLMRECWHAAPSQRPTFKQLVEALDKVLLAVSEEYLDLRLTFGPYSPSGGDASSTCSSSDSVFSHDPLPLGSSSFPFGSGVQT
Sequence of FGFR3 (P22607 23-806): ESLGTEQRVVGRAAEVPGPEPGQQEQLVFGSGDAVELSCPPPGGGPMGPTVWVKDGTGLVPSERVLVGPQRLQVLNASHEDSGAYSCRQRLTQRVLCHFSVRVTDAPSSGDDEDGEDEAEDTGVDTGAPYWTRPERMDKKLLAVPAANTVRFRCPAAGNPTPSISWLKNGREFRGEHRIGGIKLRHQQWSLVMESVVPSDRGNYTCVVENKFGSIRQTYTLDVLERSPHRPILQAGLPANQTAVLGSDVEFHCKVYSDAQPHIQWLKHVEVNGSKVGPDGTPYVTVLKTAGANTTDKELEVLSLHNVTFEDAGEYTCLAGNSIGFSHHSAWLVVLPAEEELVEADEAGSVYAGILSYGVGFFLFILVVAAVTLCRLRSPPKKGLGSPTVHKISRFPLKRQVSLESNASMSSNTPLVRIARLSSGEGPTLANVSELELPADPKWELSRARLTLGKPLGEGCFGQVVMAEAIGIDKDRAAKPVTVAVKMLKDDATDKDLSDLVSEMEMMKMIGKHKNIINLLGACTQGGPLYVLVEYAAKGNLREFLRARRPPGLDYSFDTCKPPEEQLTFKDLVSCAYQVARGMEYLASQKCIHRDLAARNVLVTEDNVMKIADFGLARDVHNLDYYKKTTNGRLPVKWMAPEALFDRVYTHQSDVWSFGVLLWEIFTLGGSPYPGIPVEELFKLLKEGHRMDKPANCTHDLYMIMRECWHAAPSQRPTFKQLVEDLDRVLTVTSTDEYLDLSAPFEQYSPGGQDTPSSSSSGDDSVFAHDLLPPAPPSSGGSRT
Sequence of FGFR2 (P21802 22-821): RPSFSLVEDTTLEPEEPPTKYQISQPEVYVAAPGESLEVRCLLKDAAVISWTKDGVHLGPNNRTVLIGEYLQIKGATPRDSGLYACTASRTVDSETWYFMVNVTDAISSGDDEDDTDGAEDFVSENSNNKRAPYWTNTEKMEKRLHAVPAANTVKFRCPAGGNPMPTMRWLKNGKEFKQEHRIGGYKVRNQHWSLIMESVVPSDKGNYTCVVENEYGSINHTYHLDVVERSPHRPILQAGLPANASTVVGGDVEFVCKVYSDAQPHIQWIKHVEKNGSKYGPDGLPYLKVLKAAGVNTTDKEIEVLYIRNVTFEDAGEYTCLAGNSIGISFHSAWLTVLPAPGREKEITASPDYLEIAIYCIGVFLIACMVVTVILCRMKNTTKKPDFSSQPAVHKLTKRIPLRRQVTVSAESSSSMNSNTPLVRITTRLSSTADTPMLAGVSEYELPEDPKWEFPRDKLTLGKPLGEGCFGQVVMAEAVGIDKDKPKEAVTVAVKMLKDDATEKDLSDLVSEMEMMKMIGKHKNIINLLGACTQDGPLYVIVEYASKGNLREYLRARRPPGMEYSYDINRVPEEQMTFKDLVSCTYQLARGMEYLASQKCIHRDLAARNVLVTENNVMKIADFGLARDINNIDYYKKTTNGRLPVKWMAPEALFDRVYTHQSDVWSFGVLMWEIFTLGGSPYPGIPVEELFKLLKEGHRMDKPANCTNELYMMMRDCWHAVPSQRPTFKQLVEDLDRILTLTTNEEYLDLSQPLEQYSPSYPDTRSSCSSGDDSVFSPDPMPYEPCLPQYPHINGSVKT
Sequence of FGFR1 (P11362 22-822): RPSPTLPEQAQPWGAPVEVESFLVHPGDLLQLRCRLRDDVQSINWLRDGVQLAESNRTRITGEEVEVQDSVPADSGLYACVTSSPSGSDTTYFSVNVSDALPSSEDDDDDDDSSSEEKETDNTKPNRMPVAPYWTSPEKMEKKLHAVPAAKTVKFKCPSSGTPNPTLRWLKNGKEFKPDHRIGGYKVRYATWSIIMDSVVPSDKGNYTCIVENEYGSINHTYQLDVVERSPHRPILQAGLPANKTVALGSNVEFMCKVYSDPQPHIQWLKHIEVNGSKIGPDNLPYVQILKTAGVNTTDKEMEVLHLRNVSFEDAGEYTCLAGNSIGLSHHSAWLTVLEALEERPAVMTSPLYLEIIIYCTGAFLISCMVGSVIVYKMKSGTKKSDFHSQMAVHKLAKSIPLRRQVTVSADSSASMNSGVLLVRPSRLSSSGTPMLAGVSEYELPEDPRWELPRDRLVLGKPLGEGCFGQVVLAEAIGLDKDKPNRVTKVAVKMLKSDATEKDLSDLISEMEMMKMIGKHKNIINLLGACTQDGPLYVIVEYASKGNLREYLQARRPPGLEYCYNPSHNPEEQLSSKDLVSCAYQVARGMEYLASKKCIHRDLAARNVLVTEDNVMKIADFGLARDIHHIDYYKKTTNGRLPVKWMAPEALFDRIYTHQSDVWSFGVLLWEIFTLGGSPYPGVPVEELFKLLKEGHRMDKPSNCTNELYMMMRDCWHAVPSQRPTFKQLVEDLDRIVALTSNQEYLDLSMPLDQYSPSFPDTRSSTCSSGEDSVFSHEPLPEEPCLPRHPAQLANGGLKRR

Row | Compound | pIC50 [1, 5] | pIC50 [1, 6] | IC50 [2, 7] [nM] | IC50 ([2]; pre-incubated for 4 hours) [nM] | FGFR1/FGFR4 IC50 ratio [1, 7] | FGFR2/FGFR4 IC50 ratio [1, 7] | FGFR3/FGFR4 IC50 ratio [1, 7] | FGFR1/FGFR4 IC50 ratio ([1]; pre-incubated for 4 hours) | FGFR2/FGFR4 IC50 ratio ([1]; pre-incubated for 4 hours) | FGFR3/FGFR4 IC50 ratio ([1]; pre-incubated for 4 hours) | pIC50 [3, 8] | pIC50 [3, 9] | pIC50 [2, 7] | pIC50 ([2]; pre-incubated for 4 hours) | pIC50 [4, 7] | pIC50 ([4]; pre-incubated for 4 hours) | pIC50 [3] | pIC50 [1]
1 | C=CC(=O)Nc1cccc(-c2cc3c(cn2)CN(c2c(F)c(OC)cc(OC)c2F)C(=O)C32CC2)c1 [Example 1, N-{3-[2′-(2,6-difluoro-3,5-dimethoxyphenyl)-3′-oxo-2′,3′-dihydro-1′H-spiro[cyclopropane-1,4′-[2,7]naphthyridin]-6′-yl]phenyl}acrylamide] | > 8.00 | > 8.00 | 10 to 30 | 10 to 30 | – | – | – | – | – | – | – | – | – | – | – | – | – | –
2 | C=CC(=O)Nc1ccc(C)c(-c2cc3c(cn2)CN(c2c(F)c(OC)cc(OC)c2F)C(=O)C32CC2)c1 [Example 2, N-(3-(2′-(2,6-difluoro-3,5-dimethoxyphenyl)-3′-oxo-2′,3′-dihydro-1′H-spiro[cyclopropane-1,4′-[2,7]naphthyridine]-6′-yl)-4-methylphenyl)acrylamide] | > 8.00 | > 8.00 | – | – | >100 | >100 | >100 | >100 | >100 | >100 | < 6.70 | < 6.70 | < 6.70 | < 6.70 | < 6.70 | < 6.70 | – | –
3 | C=CC(=O)Nc1cc(-c2cc3c(cn2)CN(c2c(F)c(OC)cc(OC)c2F)C(=O)C32CC2)ccn1 [Example 4, N-(4-(2′-(2,6-difluoro-3,5-dimethoxyphenyl)-3′-oxo-2′,3′-dihydro-1′H-spiro[cyclopropane-1,4′-[2,7]naphthyridine]-6′-yl)pyridin-2-yl)acrylamide] | – | – | 10 to 30 | 10 to 30 | – | – | – | – | – | – | – | – | – | – | – | – | – | –
4 | C=CC(=O)Nc1cnc(C)c(-c2cc3c(cn2)CN(c2c(F)c(OC)cc(OC)c2F)C(=O)C32CC2)c1 [Example 7, N-(5-(2′-(2,6-difluoro-3,5-dimethoxyphenyl)-3′-oxo-2′,3′-dihydro-1′H-spiro[cyclopropane-1,4′-[2,7]naphthyridine]-6′-yl)-6-methylpyridin-3-yl)acrylamide] | > 8.00 | > 8.00 | – | – | >100 | >100 | >100 | >100 | >100 | >100 | < 6.70 | < 6.70 | < 6.70 | < 6.70 | < 6.70 | < 6.70 | – | –
5 | C=CC(=O)N(C)c1cccc(-c2cc3c(cn2)CN(c2c(F)c(OC)cc(OC)c2F)C(=O)C32CC2)c1 [Example 9, N-(3-(2′-(2,6-difluoro-3,5-dimethoxyphenyl)-3′-oxo-2′,3′-dihydro-1′H-spiro[cyclopropane-1,4′-[2,7]naphthyridine]-6′-yl)phenyl)-N-methylacrylamide] | > 8.00 | > 8.00 | 10 to 30 | 10 to 30 | – | – | – | – | – | – | 6.70 to 7.52 | – | – | – | – | – | 6.70 to 7.52 | –
6 | C=CC(=O)Nc1cnn(CC(=O)NC)c1-c1cc2c(cn1)CN(c1c(F)c(OC)cc(OC)c1F)C(=O)C21CC1 [Example 20, N-(5-(2′-(2,6-difluoro-3,5-dimethoxyphenyl)-3′-oxo-2′,3′-dihydro-1′H-spiro[cyclopropane-l,4′[2,7]naphthyridine]-6′-yl)-1-(2-(methylamino)-2-oxoethyl)-1H-pyrazol-4-yl)acrylamide] | – | – | – | – | – | – | – | >50 | >100 | >100 | – | – | – | – | – | – | – | –

Continued, values first:

Row | pIC50 [1, 5] | pIC50 [1, 6] | IC50 [2, 7] [nM] | IC50 ([2]; pre-incubated for 4 hours) [nM] | FGFR1/FGFR4 IC50 ratio [1, 7] | FGFR2/FGFR4 IC50 ratio [1, 7] | FGFR3/FGFR4 IC50 ratio [1, 7] | FGFR1/FGFR4 IC50 ratio ([1]; pre-incubated for 4 hours) | FGFR2/FGFR4 IC50 ratio ([1]; pre-incubated for 4 hours) | FGFR3/FGFR4 IC50 ratio ([1]; pre-incubated for 4 hours) | pIC50 [3, 8] | pIC50 [3, 9] | pIC50 [2, 7] | pIC50 ([2]; pre-incubated for 4 hours) | pIC50 [4, 7] | pIC50 ([4]; pre-incubated for 4 hours) | pIC50 [3] | pIC50 [1] | Compound
7 | > 8.00 | > 8.00 | 30 to 200 | 30 to 200 | – | – | – | – | – | – | 6.70 to 7.52 | – | – | – | – | – | 6.70 to 7.52 | – | C=CC(=O)Nc1cncc(-c2cc3c(cn2)CN(c2c(F)c(OC)cc(OC)c2F)C(=O)C32CC2)c1 [Example 3, N-(5-(2′-(2,6-difluoro-3,5-dimethoxyphenyl)-3′-oxo-2′,3′-dihydro-1′H-spiro[cyclopropane-1,4′-[2,7]naphthyridine]-6′-yl)pyridin-3-yl)acrylamide]
8 | > 8.00 | > 8.00 | – | – | >100 | >100 | >100 | >100 | >100 | >100 | < 6.70 | < 6.70 | < 6.70 | < 6.70 | < 6.70 | < 6.70 | – | – | C=CC(=O)Nc1ccc(C#N)c(-c2cc3c(cn2)CN(c2c(F)c(OC)cc(OC)c2F)C(=O)C32CC2)c1 [Example 5, N-(4-cyano-3-(2′-(2,6-difluoro-3,5-dimethoxyphenyl)-3′-oxo-2′,3′-dihydro-1′H-spiro[cyclopropane-1,4′-[2,7]naphthyridine]-6′-yl)phenyl)acrylamide]
9 | > 8.00 | > 8.00 | – | – | >100 | >100 | >100 | >100 | >100 | >100 | < 6.70 | < 6.70 | < 6.70 | < 6.70 | < 6.70 | < 6.70 | – | – | C=CC(=O)Nc1cc(-c2cc3c(cn2)CN(c2c(F)c(OC)cc(OC)c2F)C(=O)C32CC2)c(C)cc1F [Example 6, N-(5-(2′-(2,6-difluoro-3,5-dimethoxyphenyl)-3′-oxo-2′,3′-dihydro-1′H-spiro[cyclopropane-1,4′-[2,7]naphthyridine]-6′-yl)-2-fluoro-4-methylphenyl)acrylamide]
10 | < 6.70 | – | – | – | >5 | >1 | >1 | >10 | >2 | >2 | < 6.70 | < 6.70 | < 6.70 | < 6.70 | < 6.70 | < 6.70 | – | 6.70 to 7.52 | C=CC(=O)N1CCCC(c2cc3c(cn2)CN(c2c(F)c(OC)cc(OC)c2F)C(=O)C32CC2)C1 (stereo not shown) [Example 8, 6′-(1-acryloylpiperidin-3-yl)-2′-(2,6-difluoro-3,5-dimethoxyphenyl)-1′H-spiro[cyclopropane-1,4′-[2,7]naphthyridin]-3′(2′H)-one]
11 | > 8.00 | > 8.00 | – | – | >100 | >100 | >100 | >100 | >100 | >100 | < 6.70 | < 6.70 | < 6.70 | < 6.70 | < 6.70 | < 6.70 | – | – | C=CC(=O)Nc1cc(-c2cc3c(cn2)CN(c2c(F)c(OC)cc(OC)c2F)C(=O)C32CC2)cc(N2CCOCC2)c1 [Example 10, N-{3-[2′-(2,6-difluoro-3,5-dimethoxyphenyl)-3′-oxo-2′,3′-dihydro-1′H-spiro[cyclopropane-1,4′-[2,7]naphthyridin]-6′-yl]-5-morpholin-4-ylphenyl}acrylamide]
12 | > 8.00 | > 8.00 | – | – | >100 | >100 | >100 | >100 | >100 | >100 | < 6.70 | < 6.70 | < 6.70 | < 6.70 | < 6.70 | < 6.70 | – | – | C=CC(=O)Nc1cc(CN2CCOCC2)cc(-c2cc3c(cn2)CN(c2c(F)c(OC)cc(OC)c2F)C(=O)C32CC2)c1 [Example 11, N-[3-[2′-(2,6-difluoro-3,5-dimethoxyphenyl)-3′-oxo-2′,3′-dihydro-1′H-spiro[cyclopropane-1,4′-[2,7]naphthyridin]-6′-yl]-5-(morpholin-4-ylmethyl)phenyl]acrylamide]
13 | > 8.00 | > 8.00 | 30 to 200 | 10 to 30 | >10 | >1 | >1 | >100 | >25 | >10 | 6.70 to 7.52 | – | – | – | < 6.70 | < 6.70 | 6.70 to 7.52 | – | C=CC(=O)Nc1cc(-c2cc3c(cn2)CN(c2c(F)c(OC)cc(OC)c2F)C(=O)C32CC2)ccc1CN1CCOCC1 [Example 12, N-(5-(2′-(2,6-difluoro-3,5-dimethoxyphenyl)-3′-oxo-2′,3′-dihydro-1′H-spiro[cyclopropane-1,4′-[2,7]naphthyridine]-6′-yl)-2-(morpholinomethyl)phenyl)acrylamide]
14 | > 8.00 | > 8.00 | 30 to 200 | 30 to 200 | – | – | – | – | – | – | 6.70 to 7.52 | – | – | – | – | – | 6.70 to 7.52 | – | C=CC(=O)Nc1cc(-c2cc3c(cn2)CN(c2c(F)c(OC)cc(OC)c2F)C(=O)C32CC2)ccc1CO [Example 13, N-(5-(2′-(2,6-difluoro-3,5-dimethoxyphenyl)-3′-oxo-2′,3′-dihydro-1′H-spiro[cyclopropane-1,4′-[2,7]naphthyridine]-6′-yl)-2-(hydroxymethyl)phenyl)acrylamide]
